Paper PMC12388125, “Design, Synthesis, and Pharmacological Activity of the N-(4-(1H-1,2,4-Triazol-1-yl)phenyl)-substituted-amide Derivatives” (Molecules, 2025)
Entries after “also recorded” stand apart in the source; their conditions may differ. Like-named read-outs stand apart in the source and are kept apart here.

Key:
MES-induced seizures [1] = assay: animal or person; type: in vivo, Kunming mice; settings: for ED50 (MES) / PI (TD50/ED50) MES / ED50: 0.5 h; for ED50 (MES): value (95% CI); for PI (TD50/ED50) MES: Kunming, mouse, in vivo; for ED50 / minimal effective dose: Mus musculus; for ED50: as given in the text; for minimal effective dose: ip, doses 30, 100, 300 mg/kg, read-out: MES, dose at which at least one of three animals was protected
Procedure: (§1) Pharmacological tests were performed using two experimental animal models, MES and scPTZ, which were divided into three dosage groups of 30, 100, and 300 mg/kg, and the anticonvulsant activity of the target compounds 6a–m and 9a–g, after 0.5 and 4 h of administration, respectively, were tested. Carbamazepine, which is effective in the MES model, was chosen as a positive control, and ethosuximide, which is effective in the scPTZ model, was chosen as a positive control. […]
Protection against the spread of
extension component of the seizure. […]

mice [2] = settings: Kunming, mouse, in vivo, 0.5 h
Procedure: (§2) The neurotoxicity of the target compounds was tested using the ROT experimental model, which was divided into two dose groups, 100 and 300 mg/kg, and tested after 0.5 and 4 h of administration, respectively.
(§3) The neurotoxicity of the target compounds was determined using the ROT experimental model.
(§4) The neurotoxicity of the compounds wa s measured in mice using the rotarod test. Mice
(§5) we r e trained to stay on an accelerating rotarod (diameter, 3.2 cm) rotating at 10 rpm. Trained
(§6) animals we r e injected with the test compounds (i.p.) and neurotoxicity wa s measured as the
(§7) inability of the animal to maintain equilibrium on the rod for at least 1 min in each of the

mice [3] = assay: Elevated plus maze (EPM) test; type: in vivo; settings: n = 6
From the text: The EPM experiment is a method for evaluating whether experimental animals have an anxiety response. The principle is that, in the face of new things, mice will generate curiosity to explore (open arm), while they have a nature of darkness (closed arm), the conflict behavior between the two occurs between exploration and avoidance, resulting in anxiety. Anxious behavior can be evaluated by comparing the retention time of mice in the open and closed arms.
Flumazenil is a selective BZ antagonist with a chemical structure similar to that of BZs, which acts on central benzodiazepine (BZ) receptors and thus blocks the receptors without producing BZ-like effects.
The apparatus consisted of a black acrylic maze with two opposite open arms (50×10 cm) and two opposite closed arms (50×10×40 cm) disposed like a plus sign with a central square of 10 cm2. Entire maze wa s elevated 50 cm above the floor. The test consisted in placing the rat in the central square of the maze facing one closed arm and allowing it to explore during 5 min. This procedure wa s performed in a quiet and dimly illuminated room. The scores analysed we r e the time spent in open and closed arms, and the number of entries to both […]
widely used as an anxiety index (time spent in open arms relative to the time spent in open […]
and closed arms). […]

[4] = Rotarod (ROT) neurotoxicity test; settings: Kunming, mouse, in vivo, intraperitoneal
Procedure: as §2, §3, §4, §5, §6, §7

mice [5] = assay: Rotarod (ROT) neurotoxicity test; settings: for TD50 (ROT): 0.5 h, value (95% CI); for NT (neurotoxicity, ROT), dose at which at least one of three animals showed neurotoxicity: doses 100, 300 mg/kg
Procedure: as §2, §3, §4, §5, §6, §7

[6] = system: pentylenetetrazole-induced clonic seizures; assay: animal or person; type: in vivo, Kunming mice; settings: for ED50 (scPTZ) / PI (TD50/ED50) scPTZ / ED50: 0.5 h; for ED50 (scPTZ): value (95% CI); for PI (TD50/ED50) scPTZ: Kunming, mouse, in vivo; for ED50 / minimal effective dose: Mus musculus, sc; for ED50: as given in the text, read-out: ED50 (scPTZ); for minimal effective dose: doses 30, 100, 300 mg/kg, read-out: scPTZ, dose at which at least one of three animals was protected
Procedure: as §1
The test compound wa s
Absence of clonic spasms indicated a […]

[7] = system: GABA content in brain tissue; assay: GABA estimation in brain tissue; type: in vivo, Wistar rats; settings: 30 mg/kg, n = 5
Procedure: The data obtained from the experiments were analyzed and processed and plotted using GraphPad Prism 8 software.
We i g h about 0.05 g of tissue sample in a homogenizer, add 450 µL of extracting solution
to homogenize, homogenize, transfer to an EP tube, mark the liquid level scale, and heat for 2
hours at 95°C. After heating, centrifuge at 8000 × g for 10 min and remove the supernatant for
① Standard tube: Ta k e 30 µL of different concentrations of standards and add them to
the corresponding 1.5 mL EP tube. Measurement tube: Ta k e 30 µL of sample supernatant and
add it to 1.5 mL EP tube. ② Add 50 µL of buffer solution and 40 µL of Chromogenic Agent A
to each tube in step, mix we l l , and let stand at room temperature for 5 min. ③ Add 60 µL of
Chromogenic Agent B to each tube in step, mix we l l , and heat at 95°C for 10 min, then cool at
ice bath. ④ Add 200 µL of supplementary solution to each tube in step and mix well. ⑤ Ta k e
200 µL into the corresponding we l l s of the enzyme plate, and measure the OD va l u e of each

MES-induced seizures [8] = system: MES-induced seizures; parameters: method as in doi:10.1016/j.molstruc.2025.141611; settings: cited from earlier work; for MES, dose at which at least one of three animals was protected: lead compound of previous study
[9] = system: pentylenetetrazole-induced clonic seizures; parameters: method as in doi:10.1016/j.molstruc.2025.141611; settings: cited from earlier work; for scPTZ, dose at which at least one of three animals was protected: lead compound of previous study
mice [10] = system: mice; parameters: method as in doi:10.1016/j.molstruc.2025.141611; settings: cited from earlier work; for NT (neurotoxicity, ROT): lead compound of previous study

Compound	ED50 (MES) (MES-induced seizures [1]) [mg/kg]	PI (TD50/ED50) MES (MES-induced seizures [1])	ED50 (MES-induced seizures [1]) [mg/kg]	TD50 (ROT) (mice [2])	minimal effective dose (MES-induced seizures [1]; 0.5 h after administration) [mg/kg]	minimal effective dose (MES-induced seizures [1]; 4 h after administration) [mg/kg]	TD50 (ROT) (mice [5])	NT (neurotoxicity, ROT), dose at which at least one of three animals showed neurotoxicity (mice [5]; 0.5 h after administration) [mg/kg]	NT (neurotoxicity, ROT), dose at which at least one of three animals showed neurotoxicity (mice [5]; 4 h after administration) [mg/kg]	ED50 (scPTZ) [6] [mg/kg]	PI (TD50/ED50) scPTZ [6]	ED50 [6] [mg/kg]	minimal effective dose ([6]; 0.5 h after administration) [mg/kg]	minimal effective dose ([6]; 4 h after administration) [mg/kg]	GABA content in brain tissue vs control ([7]; 2 h after administration)	GABA content in brain tissue vs control ([7]; 7 d continuous administration)	further results
NC(=O)N1c2ccccc2C=Cc2ccccc21 [Carbamazepine, reference compound]	11.4	6.1	11.4	69.3 (75.4–63.8) mg	–	–	–	–	–	–	–	–	–	–	–	–	–
O=C(Nc1ccc(-n2cncn2)cc1)c1cccc(F)c1 [Compound 6f, N-(4-(1H-1,2,4-triazol-1-yl)phenyl)-3-fluorobenzamide]	13.1	36.3	13.1	–	30	30	476.7 (518.3–438.5) mg	>300	>300	19.7	24.2	19.7	30	30	do not show significant differences	showed significant differences	EPM % of time in open arms vs control (mice [3]; 3 mg/kg): showed a significant difference; also recorded: showed significant differences; EPM % of time in open arms vs control (mice [3]; 6f 3 mg/kg + FMZ 5 mg/kg): also showed significant differences; EPM time in open arm vs 6f group (mice [3]; 6f 3 mg/kg + FMZ 5 mg/kg): significantly shortened the time of experimental animals in open arm; TD50 at 0.5 h [4]: 477 mg/kg
Cc1cccc(C(=O)Nc2ccc(-n3cncn3)cc2)c1 [Compound 6l, N-(4-(1H-1,2,4-triazol-1-yl)phenyl)-3-methylbenzamide]	9.1	45.9	9.1	–	30	30	419.5 (456.1–385.9) mg	>300	>300	19	22.1	19	30	30	do not show significant differences	showed significant differences	EPM % of time in open arms vs control (mice [3]; 0.5 mg/kg): showed a significant difference; EPM % of time in open arms vs control (mice [3]; 6l 0.5 mg/kg + FMZ 5 mg/kg): did not show a significant difference; EPM time in open arm vs 6l group (mice [3]; 6l 0.5 mg/kg + FMZ 5 mg/kg): significantly shortened the time of the experimental animals in the open arm
CCC1(C)CC(=O)NC1=O (stereo not drawn) [Ethosuximide, reference compound]	–	–	–	333.7 (362.8–306.9) mg	–	–	–	–	–	94.4	3.5	94.4	–	–	–	–	–
CCOC(=O)c1ncn2c1CN(C)C(=O)c1cc(F)ccc1-2 [Flumazenil, reference compound]	–	–	–	–	–	–	–	–	–	–	–	–	–	–	–	–	EPM % of time in open arms vs control (mice [3]; 5 mg/kg, listed as FMZ): did not show significant differences; also recorded: did not show a significant difference
CCCCCOc1cc(OCCCCC)n2ncnc2n1 [I]	–	–	–	–	–	–	–	–	–	–	–	–	–	–	–	–	MES, dose at which at least one of three animals was protected (MES-induced seizures [8]; 0.5 h): 30 mg/kg; MES, dose at which at least one of three animals was protected (MES-induced seizures [8]; 4 h): 30 mg/kg; ED50 (MES) (MES-induced seizures [8]; lead compound): 11.3 (12.3–10.4) mg; PI (TD50/ED50) MES (MES-induced seizures [8]; lead compound): 16.8; scPTZ, dose at which at least one of three animals was protected ([9]; 0.5 h): 30 mg/kg; scPTZ, dose at which at least one of three animals was protected ([9]; 4 h): 30 mg/kg; ED50 (scPTZ) ([9]; lead compound): 9.5 (10.4–8.8) mg; PI (TD50/ED50) scPTZ ([9]; lead compound): 20.0; NT (neurotoxicity, ROT) (mice [10]; 0.5 h): >150 mg/kg; NT (neurotoxicity, ROT) (mice [10]; 4 h): >150 mg/kg; TD50 (ROT) (mice [10]; lead compound): 190.7 (207.3–175.4) mg
